Patent publication US10981862B2, “Physiological cooling compounds” (Symrise, Inc., priority 2015, dated 2021)

test system: sensory panel; assay: Sensory panel evaluation of cooling ability, 20 ppm aqueous solutions; assay type: in vivo; set-up: key to Peak cooling strength / Peak Strength: —: Not cooling under tested conditions; conditions: 20 ppm aqueous solution
Experimental: The new carboxamides A1-A15 and B1-B15 were evaluated for their cooling ability by a sensory panel. The evaluation included tasting the 20 ppm aqueous solutions of new carboxamides and rating their maximum cooling strength on a 1-10 scale. In addition, the time at which maximum cooling strength was reached, how long the maximum strength was observed (so called cooling plateau), and the longevity of cooling sensation were recorded. The FIGURE represents a typical cooling profile, using compound A1 as an example. The obtained results (table 2), were compared with two most commonly used commercial cooling compounds WS-3 and WS-23 which belong to the same class of N-alkyl carboxamides. While various methods exist for evaluation of cooling compounds, we have chosen the parameters that allow to assess the practical aspects of new compounds that reflect their potential value as commercial sensory ingredients.

| SMILES | Longevity of cooling sensation | Time to reach peak cooling |
| --- | --- | --- |
| CC1CCC(C(C)C)C(C(=O)NCC(C)(C)C)C1 (stereo not shown) [Compound A3] | 22 min | 4 min |
| CC1CCC(C(C)C)C(C(=O)NC(C)C(C)C)C1 (stereo not shown) [Compound A4] | 20 min | 3 min |
| CCC(C)CNC(=O)C1CC(C)CCC1C(C)C (stereo not shown) [Compound A6] | 20 min | 3 min |
| CCC(CC)NC(=O)C1CC(C)CCC1C(C)C (stereo not shown) [Compound A7] | 16 min | 3 min |
| CC(C)CC(C)NC(=O)C1CC(C)CCC1C(C)C (stereo not shown) [Compound A9] | 15 min | 5 min |
| CCCCCCCNC(=O)C1CC(C)CCC1C(C)C (stereo not shown) [Compound A10] | 19 min | 4 min |
| CCCCCC(C)NC(=O)C1CC(C)CCC1C(C)C (stereo not shown) [Compound A11] | 15 min | 8 min |
| CCCCCCCCNC(=O)C1CC(C)CCC1C(C)C (stereo not shown) [Compound A12] | 10 min | 6 min |
| CC1CCC(C(C)C)C(C(=O)NC(C)(C)CC(C)(C)C)C1 (stereo not shown) [Compound A15] | 14 min | 4 min |
| CC(C)CCNC(=O)C(C)(C(C)C)C(C)C [Compound B2] | 12 min | 3 min |
| CC(C)C(C)(C(=O)NCC(C)(C)C)C(C)C [Compound B3] | 15 min | 3 min |
| CC(C)C(C)NC(=O)C(C)(C(C)C)C(C)C (stereo not shown) [Compound B4] | 14 min | 3 min |
| CCCC(C)NC(=O)C(C)(C(C)C)C(C)C (stereo not shown) [Compound B5] | 15 min | 2 min |
| CCC(C)CNC(=O)C(C)(C(C)C)C(C)C (stereo not shown) [Compound B6] | 17 min | 3 min |
| CCC(CC)NC(=O)C(C)(C(C)C)C(C)C [Compound B7] | 14 min | 4 min |
| CCCCCCNC(=O)C(C)(C(C)C)C(C)C [Compound B8] | 17 min | 4 min |
| CC(C)CC(C)NC(=O)C(C)(C(C)C)C(C)C (stereo not shown) [Compound B9] | 18 min | 4 min |
| CNC(=O)C(C)(C(C)C)C(C)C [WS-23, reference compound] | 7 min | 2 min |

same assay, conditions: 20 ppm aqueous solution; cooling plateau

| SMILES | Time period at peak cooling |
| --- | --- |
| CC1CCC(C(C)C)C(C(=O)NCC(C)(C)C)C1 (stereo not shown) [Compound A3] | 3 min |
| CC1CCC(C(C)C)C(C(=O)NC(C)C(C)C)C1 (stereo not shown) [Compound A4] | 2 min |
| CCC(C)CNC(=O)C1CC(C)CCC1C(C)C (stereo not shown) [Compound A6] | 2 min |
| CCC(CC)NC(=O)C1CC(C)CCC1C(C)C (stereo not shown) [Compound A7] | 2 min |
| CC(C)CC(C)NC(=O)C1CC(C)CCC1C(C)C (stereo not shown) [Compound A9] | 4 min |
| CCCCCCCNC(=O)C1CC(C)CCC1C(C)C (stereo not shown) [Compound A10] | 1 min |
| CCCCCC(C)NC(=O)C1CC(C)CCC1C(C)C (stereo not shown) [Compound A11] | 2 min |
| CCCCCCCCNC(=O)C1CC(C)CCC1C(C)C (stereo not shown) [Compound A12] | 4 min |
| CC1CCC(C(C)C)C(C(=O)NC(C)(C)CC(C)(C)C)C1 (stereo not shown) [Compound A15] | 6 min |
| CC(C)CCNC(=O)C(C)(C(C)C)C(C)C [Compound B2] | 2 min |
| CC(C)C(C)(C(=O)NCC(C)(C)C)C(C)C [Compound B3] | 3 min |
| CC(C)C(C)NC(=O)C(C)(C(C)C)C(C)C (stereo not shown) [Compound B4] | 2 min |
| CCCC(C)NC(=O)C(C)(C(C)C)C(C)C (stereo not shown) [Compound B5] | 3 min |
| CCC(C)CNC(=O)C(C)(C(C)C)C(C)C (stereo not shown) [Compound B6] | 2 min |
| CCC(CC)NC(=O)C(C)(C(C)C)C(C)C [Compound B7] | 2 min |
| CCCCCCNC(=O)C(C)(C(C)C)C(C)C [Compound B8] | 1 min |
| CC(C)CC(C)NC(=O)C(C)(C(C)C)C(C)C (stereo not shown) [Compound B9] | 2 min |
| CNC(=O)C(C)(C(C)C)C(C)C [WS-23, reference compound] | 2 min |

same assay, conditions: 20 ppm aqueous solution; maximum cooling strength rated on a 1-10 scale

| SMILES | Peak cooling strength |
| --- | --- |
| CC1CCC(C(C)C)C(C(=O)NCC(C)(C)C)C1 (stereo not shown) [Compound A3] | 7 |
| CC1CCC(C(C)C)C(C(=O)NC(C)C(C)C)C1 (stereo not shown) [Compound A4] | 5 |
| CCC(C)CNC(=O)C1CC(C)CCC1C(C)C (stereo not shown) [Compound A6] | 6 |
| CCC(CC)NC(=O)C1CC(C)CCC1C(C)C (stereo not shown) [Compound A7] | 6 |
| CC(C)CC(C)NC(=O)C1CC(C)CCC1C(C)C (stereo not shown) [Compound A9] | 3 |
| CCCCCCCNC(=O)C1CC(C)CCC1C(C)C (stereo not shown) [Compound A10] | 5 |
| CCCCCC(C)NC(=O)C1CC(C)CCC1C(C)C (stereo not shown) [Compound A11] | 2 |
| CCCCCCCCNC(=O)C1CC(C)CCC1C(C)C (stereo not shown) [Compound A12] | 2 |
| CC(C)CCCC(C)NC(=O)C1CC(C)CCC1C(C)C (stereo not shown) [Compound A14] | — ^a |
| CC1CCC(C(C)C)C(C(=O)NC(C)(C)CC(C)(C)C)C1 (stereo not shown) [Compound A15] | 2 |
| CCC(C)(C)NC(=O)C(C)(C(C)C)C(C)C [Compound B1] | — ^a |
| CC(C)CCNC(=O)C(C)(C(C)C)C(C)C [Compound B2] | 2 |
| CC(C)C(C)(C(=O)NCC(C)(C)C)C(C)C [Compound B3] | 3 |
| CC(C)C(C)NC(=O)C(C)(C(C)C)C(C)C (stereo not shown) [Compound B4] | 4 |
| CCCC(C)NC(=O)C(C)(C(C)C)C(C)C (stereo not shown) [Compound B5] | 6 |
| CCC(C)CNC(=O)C(C)(C(C)C)C(C)C (stereo not shown) [Compound B6] | 4 |
| CCC(CC)NC(=O)C(C)(C(C)C)C(C)C [Compound B7] | 4 |
| CCCCCCNC(=O)C(C)(C(C)C)C(C)C [Compound B8] | 3 |
| CC(C)CC(C)NC(=O)C(C)(C(C)C)C(C)C (stereo not shown) [Compound B9] | 5 |
| CCCCCCCNC(=O)C(C)(C(C)C)C(C)C [Compound B10] | — ^a |
| CCCCCC(C)NC(=O)C(C)(C(C)C)C(C)C (stereo not shown) [Compound B11] | — ^a |
| CCCCCCCCNC(=O)C(C)(C(C)C)C(C)C [Compound B12] | — ^a |
| CCCCC(CC)CNC(=O)C(C)(C(C)C)C(C)C (stereo not shown) [Compound B13] | — ^a |
| CC(C)CCCC(C)NC(=O)C(C)(C(C)C)C(C)C (stereo not shown) [Compound B14] | — ^a |
| CC(C)C(C)(C(=O)NC(C)(C)CC(C)(C)C)C(C)C [Compound B15] | — ^a |
| CNC(=O)C(C)(C(C)C)C(C)C [WS-23, reference compound] | 4 |

same assay, conditions: Table 4, repeats Table 2; 20 ppm aqueous solution, 1-10 scale

| SMILES | Peak Strength |
| --- | --- |
| CC1CCC(C(C)C)C(C(=O)NCC(C)(C)C)C1 (stereo not shown) [Compound A3] | 7 |
| CC1CCC(C(C)C)C(C(=O)NC(C)C(C)C)C1 (stereo not shown) [Compound A4] | 5 |
| CCC(C)CNC(=O)C1CC(C)CCC1C(C)C (stereo not shown) [Compound A6] | 6 |
| CCC(CC)NC(=O)C1CC(C)CCC1C(C)C (stereo not shown) [Compound A7] | 6 |
| CC(C)CC(C)NC(=O)C1CC(C)CCC1C(C)C (stereo not shown) [Compound A9] | 3 |
| CCCCCCCNC(=O)C1CC(C)CCC1C(C)C (stereo not shown) [Compound A10] | 5 |
| CCCCCC(C)NC(=O)C1CC(C)CCC1C(C)C (stereo not shown) [Compound A11] | 2 |
| CCCCCCCCNC(=O)C1CC(C)CCC1C(C)C (stereo not shown) [Compound A12] | 2 |
| CC(C)CCCC(C)NC(=O)C1CC(C)CCC1C(C)C (stereo not shown) [Compound A14] | —^a |
| CC1CCC(C(C)C)C(C(=O)NC(C)(C)CC(C)(C)C)C1 (stereo not shown) [Compound A15] | 2 |

same assay, conditions: sensory panel results

| SMILES | Cooling properties, in words |
| --- | --- |
| CC1CCC(C(C)C)C(C(=O)NC(C)(C)CC(C)(C)C)C1 (stereo not shown) [Compound A15] | only as strong as A12 and much weaker than other coolants |
| CCC(C)(C)NC(=O)C(C)(C(C)C)C(C)C [Compound B1] | does not possess any cooling properties |

test system: not given; assay: not given; conditions: not given

| SMILES | melting point |
| --- | --- |
| CC1CCC(C(C)C)C(C(=O)NCC(C)(C)C)C1 (stereo not shown) [Compound A3] | 152.4 °C |
| CC1CCC(C(C)C)C(C(=O)NC(C)C(C)C)C1 (stereo not shown) [Compound A4] | 160.2 °C |
| CCC(C)CNC(=O)C1CC(C)CCC1C(C)C (stereo not shown) [Compound A6] | 92.8 °C |
| CCC(CC)NC(=O)C1CC(C)CCC1C(C)C (stereo not shown) [Compound A7] | 192.6 °C |
| CC(C)CC(C)NC(=O)C1CC(C)CCC1C(C)C (stereo not shown) [Compound A9] | 152.6 °C |
| CC(C)CCCC(C)NC(=O)C1CC(C)CCC1C(C)C (stereo not shown) [Compound A14] | 146.7 °C |
| CC1CCC(C(C)C)C(C(=O)NC(C)(C)CC(C)(C)C)C1 (stereo not shown) [Compound A15] | 107 °C |
| CC(C)CCNC(=O)C(C)(C(C)C)C(C)C [Compound B2] | 72.2 °C |
| CC(C)C(C)(C(=O)NCC(C)(C)C)C(C)C [Compound B3] | 65.9 °C |
| CC(C)C(C)NC(=O)C(C)(C(C)C)C(C)C (stereo not shown) [Compound B4] | 88.4 °C |
| CCCC(C)NC(=O)C(C)(C(C)C)C(C)C (stereo not shown) [Compound B5] | 98 °C |
| CCC(C)CNC(=O)C(C)(C(C)C)C(C)C (stereo not shown) [Compound B6] | 67.1 °C |
| CCC(CC)NC(=O)C(C)(C(C)C)C(C)C [Compound B7] | 105 °C |
| CC(C)CC(C)NC(=O)C(C)(C(C)C)C(C)C (stereo not shown) [Compound B9] | 83.7 °C |
| CCCCCC(C)NC(=O)C(C)(C(C)C)C(C)C (stereo not shown) [Compound B11] | 46.9 °C |
| CCCCC(CC)CNC(=O)C(C)(C(C)C)C(C)C (stereo not shown) [Compound B13] | 82.5 °C |
| CC(C)CCCC(C)NC(=O)C(C)(C(C)C)C(C)C (stereo not shown) [Compound B14] | 59.4 °C |
